Where “and” joins values, the source holds several entries; their conditions need not be identical. Identical values can stand only once.
Key:
HA-specific IgG2a = system: HA-specific IgG2a; design: species or system mice; conditions: mouse, in vivo, sc, 1 mg/kg
[1] = system: HA-specific IgG1 and IgG2a; design: species or system Balb/c male mice; conditions: mouse, in vivo

| SMILES | HA Specific IgG2a, Serum Dilution End Point (HA-specific IgG2a) | IgG1 End Point [1] | antibody response to HA (in words) ([1]; 0.1 mg/kg) |
| --- | --- | --- | --- |
| CCCCCCCCCCCCCCCCCC(=O)NCCCCOn1c(CCCC)nc2c(N)nc3ccccc3c21 [N-(4-{[4-amino-2-butyl-1H-imidazo[4,5-c]quinolin-1-yl]oxy}butyl)octadecanamide] | 1.42E+04 | 1.7E7 and 1.4E7 and 1.1E7 | greatly enhanced the antibody response |
| CCOCc1nc2c(N)nc3ccccc3c2n1CC(C)(C)O [Resiquimod, resiquimod, reference compound] | 1.00E+05 |  |  |

— patent US10383938B2 (priority 2010, dated 2019)
